Drawing on patent US8455499B2, “Alkyne antagonists of lysophosphatidic acid receptors” (Amira Pharmaceuticals, Inc., priority 2008, dated 2013), this text covers IC50 for eight compounds.

The assay has as its target T1, human LPA1 (Homo sapiens, UniProt Q92633).
T1 construct: the full-length cDNA for human LPA1 was obtained by PCR of the reverse transcription reaction; expressed in transfected cells
Nature of the assay: HLPA1 Ca Flux assay (LPA1 calcium flux assay). It counts as cell-based. The settings on record: CHO cells stably expressing human LPA1; stimulated by 10 nM LPA; intracellular Ca2+. The procedure: A 1.1 kb cDNA encoding the human LPA1 receptor was cloned from human lung. Human lung RNA (Clontech Laboratories, Inc. USA) was reverse transcribed using the RETROscript kit (Ambion, Inc.) and the full-length cDNA for human LPA1 was obtained by PCR of the reverse transcription reaction. The nucleotide sequence of the cloned human LPA1 was determined by sequencing and confirmed to be identical to the published human LPA1 sequence (An et al. Biochem. Biophys. Res. Commun. 231:619 (1997). The cDNA was cloned into the pCDNA5/FRT expression plasmid and transfected in CHO cells using lipofectamine 2000 (Invitrogen Corp., USA). Clones stably expressing human LPA1 were selected using hygromycin and identified as cells that show Ca-influx in response to LPA.
Human LPA1 or LPA3 expressing CHO cells are seeded at 20,000-45,000 cells per well in a 96-well poly-D-lysine coated plate one or two days before the assay. Prior to the assay, the cells are washed once with PBS and then cultured in serum-free media overnight. On the day of the assay, a calcium indicator dye (Calcium 4, Molecular Devices) in assay buffer (HBSS with Ca^2+ and Mg^2+ and containing 20 mM Hepes and 0.3% fatty-acid free human serum albumin) is added to each well and incubation continued for 1 hour at 37° C. 10 μl of test compounds in 2.5% DMSO are added to the cells and incubation continued at room temperature for 30 minutes. Cells are the stimulated by the addition of 10 nM LPA and intracellular Ca^2+ measured using the Flexstation 3 (Molecular Devices). IC50s are determined using Graphpad prism analysis of drug titration curves.
(Calcium assays in cells follow changes in intracellular calcium, usually with a dye or a luminescent sensor.)

Structures are written as SMILES.

T1 sequence (Q92633 whole entry): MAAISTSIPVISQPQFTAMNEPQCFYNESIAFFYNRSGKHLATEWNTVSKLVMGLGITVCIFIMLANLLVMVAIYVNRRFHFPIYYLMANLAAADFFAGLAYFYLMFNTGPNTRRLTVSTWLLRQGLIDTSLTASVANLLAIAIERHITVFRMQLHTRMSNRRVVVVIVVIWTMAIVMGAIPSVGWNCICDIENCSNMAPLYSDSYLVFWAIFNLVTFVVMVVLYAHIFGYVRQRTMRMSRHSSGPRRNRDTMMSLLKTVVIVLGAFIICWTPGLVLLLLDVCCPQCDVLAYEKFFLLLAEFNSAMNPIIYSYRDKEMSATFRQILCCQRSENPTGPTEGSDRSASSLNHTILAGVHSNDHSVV

As for `Cc1noc(-c2ccc(C#CCCC(=O)O)cc2)c1NC(=O)OC(C)c1ccccc1Cl` (centres unmarked) [Compound 1-1, 5-(4-{4-[1-(2-Chloro-phenyl)-ethoxycarbonylamino]-3-methyl-isoxazol-5-yl}-phenyl)-pent-4-ynoic acid], the IC50 is less than 300 nM.

With `Cc1noc(-c2ccc(C#CCCCC(=O)O)cc2)c1NC(=O)OC(C)c1ccccc1Cl` (centres unmarked) [Compound 1-2, 6-(4-{4-[1-(2-Chloro-phenyl)-ethoxycarbonylamino]-3-methyl-isoxazol-5-yl}-phenyl)-hex-5-ynoic acid], the 50% inhibitory concentration (IC50) is less than 300 nM. The same measure for `Cc1noc(-c2ccc(C#CCCCCC(=O)O)cc2)c1NC(=O)OC(C)c1ccccc1Cl` (centres unmarked) [Compound 1-3, 7-(4-{4-[1-(2-Chloro-phenyl)-ethoxycarbonylamino]-3-methyl-isoxazol-5-yl}-phenyl)-hept-6-ynoic acid]: less than 300 nM. On to `Cc1noc(-c2ccc(C#CCC(C)(C)C(=O)O)cc2)c1NC(=O)OC(C)c1ccccc1Cl` (centres unmarked) [Compound 1-4, 5-(4-{4-[1-(2-Chloro-phenyl)-ethoxycarbonylamino]-3-methyl-isoxazol-5-yl}-phenyl)-2,2-dimethyl-pent-4-ynoic acid], for which the IC50 is less than 300 nM.

`Cc1noc(-c2ccc(C#CCn3ncc(C(=O)O)c3C(F)(F)F)cc2)c1NC(=O)OC(C)c1ccccc1Cl` (centres unmarked) [Compound 2-1, 1-[3-(4-{4-[1-(2-Chloro-phenyl)-ethoxycarbonylamino]-3-methyl-isoxazol-5-yl}-phenyl)-prop-2-ynyl]-5-trifluoromethyl-1H-pyrazole-4-carboxylic acid]: the IC50 is greater than 1000 nM.

For `Cc1noc(-c2ccc(C#CCn3cc(C(=O)O)cn3)cc2)c1NC(=O)OC(C)c1ccccc1Cl` (centres unmarked) [Compound 2-2, 1-[3-(4-{4-[1-(2-Chloro-phenyl)-ethoxycarbonylamino]-3-methyl-isoxazol-5-yl}-phenyl)-prop-2-ynyl]-1H-pyrazole-4-carboxylic acid], the IC50 fell in the range of 300 to 1000 nM.

Consider `Cc1noc(-c2ccc(C#CCn3cnc(C(=O)O)c3)cc2)c1NC(=O)OC(C)c1ccccc1Cl` (centres unmarked) [Compound 2-3, 1-[3-(4-{4-[1-(2-Chloro-phenyl)-ethoxycarbonylamino]-3-methyl-isoxazol-5-yl}-phenyl)-prop-2-ynyl]-1H-imidazole-4-carboxylic acid], for which the IC50 was less than 300 nM. With `Cc1noc(-c2ccc(C#CCn3cncn3)cc2)c1NC(=O)OC(C)c1ccccc1Cl` (centres unmarked) [Compound 3-1] the figure was less than 300 nM.

For orientation: IC50 means the concentration that gives 50% inhibition.
